Measurements reported in patent publication US20240109903A1, “SUBSTITUTED HETEROCYCLES FOR TREATING CANCER” (Northwestern University, priority 2022, published 2024).
Like-named read-outs stand apart in the source and are kept apart here.

Assays:
[1] = tested on: MALME-3M; assay: NCI 60 five-dose screen MALME-3M; format: cell-based; conditions: Homo sapiens, MALME-3M, five-dose
[2] = tested on: M14; assay: NCI 60 five-dose screen M14; format: cell-based; conditions: Homo sapiens, five-dose
[3] = tested on: K-562; assay: NCI 60 five-dose screen K-562; format: cell-based; conditions: Homo sapiens, K562, five-dose
[4] = tested on: HS 578T; assay: NCI 60 five-dose screen HS 578T; format: cell-based; conditions: Homo sapiens, five-dose
[5] = tested on: SR; assay: NCI 60 five-dose screen SR; format: cell-based, human; conditions: five-dose
[6] = tested on: SF-539; assay: NCI 60 five-dose screen SF-539; format: cell-based; conditions: Homo sapiens, five-dose
[7] = tested on: OVCAR-5; assay: NCI 60 five-dose screen OVCAR-5; format: cell-based; conditions: Homo sapiens, five-dose
[8] = tested on: MV-4-11 acute myeloid leukemia cells; assay: CellTiter-Glo 2.0 cell viability, MV-4-11; format: cell-based; conditions: Homo sapiens
Procedure, shortened: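 MV4-11 cells plated at 3,000 cells/well on pre-dispensed compounds and incubated 3 days at 37 °C, 5% CO2. Viability read as ATP-dependent luminescence with CellTiter-Glo 2.0 after 20 min at ambient temperature, followed by regression analysis.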

[9] = tested on: U251; assay: NCI 60 five-dose screen U251; format: cell-based; conditions: Homo sapiens, U-251, five-dose
[10] = tested on: MOLT-4; assay: NCI 60 five-dose screen MOLT-4; format: cell-based; conditions: Homo sapiens, five-dose
[11] = tested on: RXF 393; assay: NCI 60 five-dose screen RXF 393; format: cell-based; conditions: Homo sapiens, five-dose
[12] = tested on: NCI-H23; assay: NCI 60 five-dose screen NCI-H23; format: cell-based; conditions: Homo sapiens, five-dose
[13] = tested on: IGROV1; assay: NCI 60 five-dose screen IGROV1; format: cell-based; conditions: Homo sapiens, IGROV-1, five-dose
[14] = tested on: MDA-MB-231/ATCC; assay: NCI 60 five-dose screen MDA-MB-231/ATCC; format: cell-based; conditions: Homo sapiens, five-dose
[15] = tested on: DU-145; assay: NCI 60 five-dose screen DU-145; format: cell-based; conditions: Homo sapiens, five-dose
[16] = tested on: KM12; assay: NCI 60 five-dose screen KM12; format: cell-based; conditions: Homo sapiens, five-dose
[17] = tested on: UACC-62; assay: NCI 60 five-dose screen UACC-62; format: cell-based; conditions: Homo sapiens, five-dose
[18] = tested on: TK-10; assay: NCI 60 five-dose screen TK-10; format: cell-based; conditions: Homo sapiens, five-dose
[19] = tested on: SNB-19; assay: NCI 60 five-dose screen SNB-19; format: cell-based; conditions: Homo sapiens, five-dose
[20] = tested on: HCT-116; assay: NCI 60 five-dose screen HCT-116; format: cell-based; conditions: Homo sapiens, five-dose
[21] = tested on: HOP-62; assay: NCI 60 five-dose screen HOP-62; format: cell-based; conditions: Homo sapiens, five-dose
[22] = tested on: HCC-2998; assay: NCI 60 five-dose screen HCC-2998; format: cell-based; conditions: Homo sapiens, five-dose
[23] = tested on: UACC-257; assay: NCI 60 five-dose screen UACC-257; format: cell-based; conditions: Homo sapiens, five-dose
[24] = tested on: SK-MEL-28; assay: NCI 60 five-dose screen SK-MEL-28; format: cell-based; conditions: Homo sapiens, five-dose
[25] = read-out: LC50 (the source's name) (converted)
[26] = read-out: LC50 (the source's name)

Molecule `OC1CCC(Cn2c(C(F)(F)F)cc3c(Cl)ncnc32)CC1` (stereo not shown) [NUCC-0226689] has a GI50 [1] of 17.8 µM, an IC50 [1] of 85.1 µM and an IC (TGI) [1] of 64.6 µM. The CC50 [1, 25] was no less than 100 µM, the GI50 [2] was 4.9 µM and the IC50 [2] was 8.71 µM. For the same molecule, the IC (TGI) [2] was 26.9 µM, the CC50 [2, 25] was no less than 100 µM and the GI50 [3] was 2.88 µM. For the same molecule, the IC50 [3] was 3.55 µM, the IC (TGI) [3] was 100 µM and the CC50 [3, 26] was no less than 100 µM. For the same molecule, the GI50 [4] was 13.8 µM, the IC50 [4] was 93.3 µM and the IC (TGI) [4] was 53.7 µM. The CC50 [4, 26] was no less than 100 µM, the GI50 ([5]; Homo sapiens) was 2.14 µM and the IC50 ([5]; Homo sapiens) was 3.55 µM. The CC50 ([5]; Homo sapiens, read-out: LC50 (the source's name)) was no less than 100 µM, the TGI [5] was 5.17 −log[M] and the GI50 [6] was 17.8 µM. It also gave an IC50 [6] of 32.4 µM, an IC (TGI) [6] of 38.9 µM and a CC50 [6, 25] of 85.1 µM. The GI50 [7] was 100 µM, the IC50 [7] was 100 µM and the IC (TGI) [7] was 100 µM. The CC50 [7, 25] was no less than 100 µM, the IC50 ([8]; MV4-11, 72 h, MV-4-11 cells, 3 days, CellTiter-Glo 2.0, read-out: IC50 (uM) [Cell Type: MV-4-11]) was 0.689 µM and the IC50 ([8]; MV4-11, bound stated in text, read-out: IC50 against MV-4-11 acute myeloid leukemia cells) was less than 2 µM. The GI50 [9] was 3.24 µM, the IC50 [9] was 4.27 µM and the IC (TGI) [9] was 12.9 µM. The CC50 [9, 25] was 44.7 µM, the GI50 [10] was 2.75 µM and the IC50 [10] was 4.47 µM. For the same molecule, the IC (TGI) [10] was 8.13 µM, the CC50 [10, 26] was no less than 100 µM and the GI50 [11] was 12.6 µM. It also gave an IC50 [11] of 37.2 µM, an IC (TGI) [11] of 34.7 µM and a CC50 [11, 25] of 97.7 µM. For the same molecule, the GI50 [12] was 3.09 µM, the IC50 [12] was 5.5 µM and the IC (TGI) [12] was 11.5 µM. For the same molecule, the CC50 [12, 25] was 45.7 µM, the GI50 [13] was 1.95 µM and the IC50 [13] was 3.47 µM. It also gave an IC (TGI) [13] of 4.07 µM, a CC50 [13, 25] of 8.51 µM and a GI50 [14] of 4.47 µM. For the same molecule, the IC50 [14] was 11 µM, the IC (TGI) [14] was 20 µM and the CC50 [14, 25] was 69.2 µM. It also gave a GI50 [15] of 7.94 µM, an IC50 [15] of 13.8 µM and an IC (TGI) [15] of 20.4 µM. The CC50 [15, 25] was 46.8 µM, the GI50 [16] was 26.3 µM and the IC50 [16] was 37.2 µM. The IC (TGI) [16] was 93.3 µM, the CC50 [16, 25] was no less than 100 µM and the GI50 [17] was 5.37 µM. It also gave an IC50 [17] of 11.5 µM, an IC (TGI) [17] of 19.5 µM and a CC50 [17, 25] of 51.3 µM. The GI50 [18] was 100 µM, the IC50 [18] was 100 µM and the IC (TGI) [18] was 100 µM. The CC50 [18, 25] was no less than 100 µM, the GI50 [19] was 13.5 µM and the IC50 [19] was 24 µM. For the same molecule, the IC (TGI) [19] was 26.9 µM, the CC50 [19, 25] was 53.7 µM and the GI50 [20] was 3.55 µM. It also gave an IC50 [20] of 4.17 µM, an IC (TGI) [20] of 15.8 µM and a CC50 [20, 25] of 72.4 µM. The GI50 [21] was 20 µM, the IC50 [21] was 42.7 µM and the IC (TGI) [21] was 57.5 µM. The CC50 [21, 25] was no less than 100 µM, the GI50 [22] was 1.78 µM and the IC50 [22] was 3.24 µM. The IC (TGI) [22] was 3.31 µM, the CC50 [22, 25] was 6.17 µM and the GI50 [23] was 3.39 µM. It also gave an IC50 [23] of 7.76 µM, an IC (TGI) [23] of 14.1 µM and a CC50 [23, 25] of 56.2 µM. For the same molecule, the GI50 [24] was 9.33 µM, the IC50 [24] was 19.1 µM and the IC (TGI) [24] was 30.9 µM. The CC50 [24, 25] was no less than 100 µM.
